Data on nine molecules can be found in patent US11254668B2, “Pyrazolo[1,5-A]pyrazin-4-yl and related derivatives” (Pfizer Inc., priority 2017, dated 2022).

The structures appear in SMILES notation.

Common to all, as to format: biochemical
The target of one experiment is TYK2 (Homo sapiens (Human), UniProt P29597). In words: JAK Caliper Enzyme Assay at 1 mM ATP, TYK2. Put shortly:
(§1)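 Mobility-shift microfluidic read-out: substrate and phosphopeptide peaks separated, % conversion = product/(product+substrate). Reaction used recombinant human kinase domain, synthetic peptide, 1 mM ATP, RT incubation to 20–30% turnover, quenched with EDTA. Percent effect versus DMSO and positive controls, plotted against concentration.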

The target in the next experiment is JAK1 (Homo sapiens (Human), UniProt P23458). In words: JAK Caliper Enzyme Assay at 1 mM ATP, JAK1. A digest of the protocol:
(§2)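 Recombinant human kinase domains phosphorylate a fluorescent synthetic peptide at 1 mM ATP, room temperature, with enzyme and time tuned for 20-30% conversion; EDTA-stopped. Product/substrate separated by microfluidic mobility shift; percent effect versus DMSO and positive controls fitted to IC50 (nM).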

For the next experiment, the target named is JAK2 (Homo sapiens (Human), UniProt O60674). In words: JAK Caliper Enzyme Assay at 1 mM ATP, JAK2. Put shortly:
as §1

A further experiment addresses JAK3 (Homo sapiens (Human), UniProt P52333). Nature of the experiment: JAK Caliper Enzyme Assay at 1 mM ATP, JAK3. A digest of the protocol: as §2

Chain of JAK1 (P23458 875-1153): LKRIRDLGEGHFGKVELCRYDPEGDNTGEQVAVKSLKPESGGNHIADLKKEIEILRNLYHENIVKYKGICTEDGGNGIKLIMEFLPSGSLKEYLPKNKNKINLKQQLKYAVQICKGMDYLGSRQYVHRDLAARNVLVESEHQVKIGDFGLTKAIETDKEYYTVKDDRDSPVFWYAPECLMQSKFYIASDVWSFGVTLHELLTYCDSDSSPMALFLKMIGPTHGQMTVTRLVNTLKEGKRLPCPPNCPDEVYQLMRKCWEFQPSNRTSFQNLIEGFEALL
Chain of TYK2 (P29597 897-1176): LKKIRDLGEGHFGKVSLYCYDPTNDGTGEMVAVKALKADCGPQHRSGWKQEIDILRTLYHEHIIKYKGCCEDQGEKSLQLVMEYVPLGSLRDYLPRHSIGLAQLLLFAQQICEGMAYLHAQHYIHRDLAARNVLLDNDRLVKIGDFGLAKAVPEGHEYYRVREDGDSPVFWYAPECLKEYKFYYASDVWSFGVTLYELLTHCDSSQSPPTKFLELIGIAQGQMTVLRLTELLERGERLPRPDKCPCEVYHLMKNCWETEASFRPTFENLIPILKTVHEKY
Chain of JAK2 (O60674 849-1124): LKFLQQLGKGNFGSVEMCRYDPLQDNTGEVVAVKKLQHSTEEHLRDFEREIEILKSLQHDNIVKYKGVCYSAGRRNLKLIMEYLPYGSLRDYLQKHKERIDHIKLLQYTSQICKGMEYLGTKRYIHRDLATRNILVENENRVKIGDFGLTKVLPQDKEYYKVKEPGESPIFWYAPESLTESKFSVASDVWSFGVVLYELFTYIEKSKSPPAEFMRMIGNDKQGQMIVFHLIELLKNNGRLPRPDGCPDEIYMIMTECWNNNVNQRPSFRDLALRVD
Chain of JAK3 (P52333 822-1111): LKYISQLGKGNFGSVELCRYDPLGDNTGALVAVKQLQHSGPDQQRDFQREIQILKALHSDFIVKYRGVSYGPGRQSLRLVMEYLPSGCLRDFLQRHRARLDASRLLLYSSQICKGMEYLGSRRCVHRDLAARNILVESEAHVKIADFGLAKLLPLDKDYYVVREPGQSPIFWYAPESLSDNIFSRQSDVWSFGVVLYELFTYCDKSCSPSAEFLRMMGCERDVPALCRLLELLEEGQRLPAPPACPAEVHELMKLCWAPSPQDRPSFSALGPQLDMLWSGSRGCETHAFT

Consider `Cn1cc(-c2cc3ncccc3c(-c3ccn(C4(CC#N)CN(S(C)(=O)=O)C4)n3)n2)c(N)n1` [Example 138, [3-{3-[7-(3-amino-1-methyl-1H-pyrazol-4-yl)-1,6-naphthyridin-5-yl]-1H-pyrazol-1-yl}-1-(methylsulfonyl)azetidin-3-yl]acetonitrile], for which the IC50 (in general, the concentration needed to halve the response being measured) at TYK2 is 8 nM; at JAK1, 382 nM; at JAK2, 21 nM; at JAK3, 3.19 µM.

For `Cn1cc(-c2cc3ncccc3c(-c3ccn([C@]4(CC#N)C[C@@H](C#N)C4)n3)n2)c(N)n1` [Example 139, trans-3-{3-[7-(3-amino-1-methyl-1H-pyrazol-4-yl)-1,6-naphthyridin-5-yl]-1H-pyrazol-1-yl}-3-(cyanomethyl)cyclobutanecarbonitrile], the IC50 amounted to 10 nM at TYK2, 243 nM on JAK1, 20 nM at JAK2 and 3.72 µM on JAK3.

In the case of `Cn1cc(-c2cc3ncccc3c(-c3ccn([C@]4(CC#N)C[C@H](C#N)C4)n3)n2)c(N)n1` [Example 140, cis-3-{3-[7-(3-amino-1-methyl-1H-pyrazol-4-yl)-1,6-naphthyridin-5-yl]-1H-pyrazol-1-yl}-3-(cyanomethyl)cyclobutanecarbonitrile], the IC50 came out at 8 nM at TYK2, 48 nM at JAK1, 10 nM at JAK2 and 0.474 µM at JAK3.

Take `Cn1ncc(-c2cc3ncccc3c(-c3ccn(C4(CC#N)CC(C#N)C4)n3)n2)c1N` (stereo not drawn) [Example 141, trans-3-{3-[7-(5-amino-1-methyl-1H-pyrazol-4-yl)-1,6-naphthyridin-5-yl]-1H-pyrazol-1-yl}-3-(cyanomethyl)cyclobutanecarbonitrile]: the IC50 on TYK2 is 49 nM; on JAK1 it was 355 nM; at JAK2, 127 nM; at JAK3, over 10 µM.

In the case of `Cn1ncc(-c2cc3ncccc3c(-c3ccn([C@]4(CC#N)C[C@H](C#N)C4)n3)n2)c1N` [Example 142, cis-3-{3-[7-(5-amino-1-methyl-1H-pyrazol-4-yl)-1,6-naphthyridin-5-yl]-1H-pyrazol-1-yl}-3-(cyanomethyl)cyclobutanecarbonitrile], the IC50 on TYK2 was 19 nM; at JAK1, 53 nM; on JAK2 it was 30 nM; on JAK3, 2.16 µM.

`Cc1ccn(-c2cc3ncccc3c(-c3ccn(C4(CC#N)CN(CC(F)(F)F)C4)n3)n2)n1` [Example 143, [3-{3-[7-(3-methyl-1H-pyrazol-1-yl)-1,6-naphthyridin-5-yl]-1H-pyrazol-1-yl}-1-(2,2,2-trifluoroethyl)azetidin-3-yl]acetonitrile]: the IC50 at TYK2 is 767 nM; on JAK1, over 10000 nM; on JAK2 it was 6670 nM; on JAK3, over 10 µM.

As for `N#CCC1(n2ccc(-c3nc(-c4cn(C5COC5)cn4)cc4ncccc34)n2)CN(CC(F)(F)F)C1` [Example 144, [3-(3-{7-[1-(oxetan-3-yl)-1H-imidazol-4-yl]-1,6-naphthyridin-5-yl}-1H-pyrazol-1-yl)-1-(2,2,2-trifluoroethyl)azetidin-3-yl]acetonitrile], the IC50 on TYK2 was 223 nM; on JAK1 it was over 10000 nM; on JAK2, 1370 nM; on JAK3, over 10 µM.

As for `CS(=O)(=O)N1CC(CC#N)(n2ccc(-c3nc(-c4cnco4)cc4ncccc34)n2)C1` [Example 145, [1-(methylsulfonyl)-3-{3-[7-(1,3-oxazol-5-yl)-1,6-naphthyridin-5-yl]-1H-pyrazol-1-yl}azetidin-3-yl]acetonitrile], the IC50 at TYK2 was 172 nM; at JAK1, 3290 nM; at JAK2, 1790 nM; on JAK3 it was over 10 µM.

As to `N#CC[C@]1(n2ccc(-c3nc(-c4cc(CO)no4)cc4ncccc34)n2)C[C@@H](C#N)C1` [Example 146, cis-3-(cyanomethyl)-3-(3-{7-[3-(hydroxymethyl)-1,2-oxazol-5-yl]-1,6-naphthyridin-5-yl}-1H-pyrazol-1-yl)cyclobutanecarbonitrile], the IC50 on TYK2 was 26 nM; at JAK1 it was 400 nM; at JAK2, 99 nM; on JAK3 it was over 10 µM.
